Laboratory results reported in US20060040876A1, “Modulation of peroxisome proliferator-activated receptors” (priority 2004, published 2006).

Assays:
[1] = molecular target: T1, recombinant mouse PGR-2 protein (Mus musculus, UniProt Q8VDQ1); test: Substrate specificity and kinetics of recombinant PGR-2 (NADPH oxidation, absorbance at 490 nm); type: biochemical; conditions: for specific activity as substrate of PGR-2: 15-keto PGE2 replaced with the test substrate, 0.5 mM NADPH, 37° C., 10 minutes
T1 construct: GST (N); made in house; host or cells: E. coli
Method: Mouse PGR-2 was recombinantly expressed in E. coli as a GST fusion protein following standard procedures. The recombinant PGR-2 protein thus obtained was used to determine substrate specificity and enzymatic kinetics.
(§1) Enzymatic activity was determined as follows. 10 μg of the recombinant mouse PGR-2 protein was incubated at 37° C. in a reaction buffer containing 0.1M Tris-HCl (pH 7.4), 0.5 mM NADPH, and 0.57 mM 15-keto PGE2. The reaction was conducted at 37° C. in the dark for 10 minutes and terminated by adding 700 μl of a buffer which contained 50 mM potassium hydrogen phthalate, pH 3.0, and 1% Tween 20. 200 μl of a color development reagent, which contained 790 μM indonitrotetrazolium chloride, 60 μM phenazene methosulfate, and 1% Tween 20, was added to oxidize any unreacted NADPH. Absorbance at 490 nm was measured by an ELISA plate reader. A standard curve was generated using reaction buffers containing serially diluted amounts of NADPH.
Substrate specificity of PGR-2 was determined using the just-described procedure, except that 15-keto PGE2 was replaced with each of six prostaglandin substrates, each of three downstream metabolites, or leukotriene B4.
Unlike PGR/LTB4DH, PGR-2 used NADPH as a cofactor much more efficiently than NADH.

[2] = system: 15-keto prostaglandin-Δ^13-reductase; test: 15-keto prostaglandin-Δ^13-reductase inhibition assay; type: biochemical; conditions: different concentrations of inhibitor, incubated 2 hours at 37° C.
Method: as §1, with “of NADPH. […]” for “of NADPH.”
A series of compounds were tested for their inhibitory effects on 15-keto prostaglandin-Δ^13-reductase activity. The inhibition assay was performed following the procedure described above. Different concentrations of 15-keto prostaglandin-Δ^13-reductase inhibitors were added to the reaction mixture and incubated for 2 hours at 37° C.

[3] = system: IRS-2; test: IRS-2 protein expression in 3T3-L1 cells; type: cell-based, mouse; conditions: in the presence of insulin and dexamethasone
Text: (§2) Also examined was the ability of 15-keto PGE2 to induce protein expression of adipogenesis-specific, PPAR-gamma target genes, i.e., IRS-1 and -2.

[4] = molecular target: T2, PPAR-gamma (Homo sapiens, UniProt P37231); test: Luciferase reporter with PPAR-gamma ligand-binding domain fused to GAL4 DNA-binding domain in 3T3-L1 cells; type: cell-based
T2 construct: expressed in transfected cells; host or cells: 3T3-L1 cells
T2 sequence (P37231 238-503 limits assumed): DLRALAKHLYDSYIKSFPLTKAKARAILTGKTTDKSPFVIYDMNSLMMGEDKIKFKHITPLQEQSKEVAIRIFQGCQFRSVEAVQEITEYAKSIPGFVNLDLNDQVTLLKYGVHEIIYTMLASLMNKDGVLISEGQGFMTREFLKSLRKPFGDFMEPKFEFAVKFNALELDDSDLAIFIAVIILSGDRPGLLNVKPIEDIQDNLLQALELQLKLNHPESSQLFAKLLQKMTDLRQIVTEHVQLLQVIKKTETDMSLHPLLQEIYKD
Text: A luciferase reporter gene was transfected to 3T3-L1 cells together with the ligand-binding domain of PPAR-alpha, PPAR-gamma or PPAR-delta fused to a yeast GAL4 DNA-binding domain.

[5] = system: PPAR-gamma1 and PPAR-gamma2; test: PPAR-gamma1 and PPAR-gamma2 protein expression in 3T3-L1 cells; type: cell-based, mouse; conditions: 15-keto PGE2 and MIX added with insulin and dexamethasone
[6] = system: 3T3-L1 cells; test: Adipogenesis in 3T3-L1 cells, lipid droplets stained with oil-red O; type: cell-based, mouse; conditions: 14 μM, day 2 to 4 during adipogenesis; stained at day 6
Method: (§3) The effect of prostaglandin on PPAR-gamma activity in adipocytes was investigated. After treatment with a medium that induces cell differentiation, 3T3-L1 cells were treated from day 2 to 4 during adipogenesis with 14 μM 15-keto PGE2, 13,14-dihydro-15-keto PGE2, 15-keto PGF2α, 13,14-dihydro-15-keto PGF2α, or 4.5 μM of BRL49653, a PPAR-gamma agonist. See Forman et al., Cell (1995) 83:803-812. At day 6, aggregates of lipid droplets were stained with oil-red O for observation. […] After being induced to differentiate for two days, the 3T3-L1 cells were transfected with a reporter gene.

[7] = system: IRS-1; test: IRS-1 protein expression in 3T3-L1 cells; type: cell-based, mouse
Text: as §2

[8] = system: endogenous PPAR; test: Reporter gene assay of endogenous PPAR activity in differentiating 3T3-L1 cells; type: cell-based, mouse; conditions: 3T3-L1 cells induced to differentiate for two days, transfected with reporter gene
Method: as §3

[9] = system: aP2; test: aP2 expression in 3T3-L1 cells; type: cell-based, mouse; conditions: even in the absence of MIX
[10] = system: Female diabetic mice (C57BLKS/J-m+/+Lep^db); test: Blood glucose levels in insulin-resistant, hyperglycemic diabetic mice; type: in vivo, mouse; conditions: 25 mg/kg intraperitoneally twice a day for two days
Method: The in vivo effect of another inhibitor, 2,2′-dihydroxychalcone, on glucose metabolism was also investigated. Female diabetic mice were obtained from the Jackson Laboratory (C57BLKS/J-m+/+Lep^db, 12 to 13 weeks old). These mice were characterized as insulin-resistant and hyperglycemic. 25 mg/kg of 2,2′-dihydroxychalcone (n=8) or placebo (n=4, final concentration against body fluid: 0.5% DMSO/1% ethanol) was injected intraperitoneally to the mice twice a day for two days. The mice were then fasted from the 48th hour through 52nd hour after the first injection. Blood samples were collected from the retro-orbital sinus before the first injection, and every two hours after two days of treatment. Blood glucose levels were measured by an electrode-type blood glucose meter (HORIBA, AntSense II, Japan).

[11] = system: 3T3-L1 cells; test: Glucose transport assay, uptake of 2-deoxy-D-[3H]glucose in differentiated 3T3-L1 cells; type: cell-based, mouse
Method: 3T3-L1 cells were induced to differentiate in the same manner as described above. A glucose transport assay was performed by measuring uptake of 2-deoxy-D-[3H]glucose as described by Fingar et al. See Fingar et al., Endocrinology 134:728-735. 1.67 μM of the inhibitor or 45 nM of a PPAR agonist, i.e., AVANDIA, was added to the cells. 10 μM cytochalasin-B was used to measure background glucose uptake levels.

T1 sequence (Q8VDQ1 whole entry): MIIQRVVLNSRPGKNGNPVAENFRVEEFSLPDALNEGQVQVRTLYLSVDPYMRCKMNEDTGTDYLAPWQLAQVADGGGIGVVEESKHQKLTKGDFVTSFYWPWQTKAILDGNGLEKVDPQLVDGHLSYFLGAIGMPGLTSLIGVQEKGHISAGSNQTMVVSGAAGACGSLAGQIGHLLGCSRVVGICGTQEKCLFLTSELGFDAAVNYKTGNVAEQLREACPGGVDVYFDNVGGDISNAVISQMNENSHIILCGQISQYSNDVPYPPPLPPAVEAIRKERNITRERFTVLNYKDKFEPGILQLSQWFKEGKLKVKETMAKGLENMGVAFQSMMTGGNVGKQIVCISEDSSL

Row | specific activity as substrate of PGR-2 [1] | inhibition of 15-keto prostaglandin-Δ^13-reductase activity [2] | Compound | further results
1 | – | inhibited | COc1cc(O)c(C(=O)/C=C/c2cc(Br)ccc2O)c(OC)c1 [5-bromo-2,2′-dihydroxy-4′,6′-dimethoxychalcone] | –
2 | – | inhibited | O=C(/C=C/c1ccccc1)c1ccc(O)cc1O [2′,4′-dihydroxychalcone] | –
3 | – | inhibited | O=C(/C=C/c1ccc(O)cc1)c1ccccc1O [4,2′-dihydroxychalcone] | –
4 | – | inhibited | O=c1cc(-c2ccc(O)c(O)c2)oc2cc(O)cc(O)c12 [luteolin] | –
5 | – | inhibited | O=C(/C=C/c1cccc(O)c1)c1ccccc1O [3,2′-dihydroxychalcone] | –
6 | – | inhibited | O=C(/C=C/c1ccccc1O)c1cc(O)ccc1O [2,2′,5′-trihydroxychalcone] | –
7 | – | inhibited | O=C(/C=C/c1ccccc1O)c1ccccc1O [2,2′-dihydroxychalcone] | blood glucose levels compared to placebo controls [10]: significant reduction
8 | – | inhibited | O=c1c(O)c(-c2cccc(O)c2)oc2ccccc12 [3,3′-dihydroxyflavone] | –
9 | – | inhibited | O=c1c(O)c(-c2ccc(O)cc2)oc2cc(O)cc(O)c12 [kaempferol] | –
10 | – | inhibited | O=C(/C=C/c1ccccc1O)c1ccc(O)cc1O [2,2′,4′-trihydroxychalcone] | –
11 | – | inhibited | O=c1cc(-c2ccccc2)oc2cc(O)cc(O)c12 [5,7-dihydroxyflavone] | –
12 | – | inhibited | O=c1oc2ccccc2c(O)c1Cc1c(O)c2ccccc2oc1=O [3,3′-methylene-bis(4-hydroxycoumarin)] | ability to enhance glucose uptake compared with AVANDIA ([11]; 1.67 μM inhibitor vs 45 nM AVANDIA): comparable to that of AVANDIA; increase of glucose uptake ([11]; 1.67 μM inhibitor, 100 nM insulin, differentiated 3T3-L1 cells): 30 folds
13 | – | inhibited | CC(=O)CC(c1ccccc1)c1c(O)c2ccccc2oc1=O (stereo not shown) [warfarin, reference compound] | –

Second part, the compound before the results:

Row | Compound | specific activity as substrate of PGR-2 [1] | inhibition of 15-keto prostaglandin-Δ^13-reductase activity [2] | further results
14 | CCCCCC(=O)CCC1C(=O)CC(O)C1C/C=C\CCCC(=O)O (stereo not shown) [13,14-dihydro-15-keto PGD2] | no specific activity was detected | – | –
15 | CCCCC[C@H](O)/C=C/[C@@H]1[C@@H](CC(=O)CCCCC(=O)O)[C@@H](O)C[C@H]1O [6-keto PGF1α] | no specific activity was detected | – | –
16 | CCCCCC(=O)/C=C/[C@H]1[C@H](O)CC(=O)[C@@H]1CCCCCCC(=O)O [15-keto PGE1] | reacted specifically | – | –
17 | CCCCCC(=O)/C=C/[C@H]1[C@H](O)CC(=O)[C@@H]1C/C=C\CCCC(=O)O [15-keto PGE2] | – | – | IRS-2 expression [3]: enhanced the expression to a level similar to MIX; activation of PPAR-gamma (GAL4-LBD luciferase reporter) [4]: activated; PPAR-gamma1 and PPAR-gamma2 expression [5]: significantly enhanced; adipogenesis (lipid droplets, oil-red O) [6]: effectively enhanced adipogenesis at a level similar to BRL49653; efficiency of PGR-2 catalyzed conversion into 13,14-dihydro-15-keto prostaglandin ([1]; kinetics studies, recombinant PGR-2): most efficiently; amount of IRS-1 protein [7]: did not increase; endogenous PPAR activity (reporter gene) [8]: enhanced endogenous PPAR activity significantly; expression of aP2 [9]: strongly induced
18 | CCCCCC(=O)/C=C/[C@@H]1[C@@H](CCCCCCC(=O)O)[C@@H](O)C[C@H]1O [15-keto PGF1α] | reacted specifically | – | –
19 | O.O.O=c1c(O)c(-c2ccc(O)c(O)c2)oc2cc(O)cc(O)c12 [quercetin dehydrate] | – | inhibited | –
20 | CCCCCC(=O)CC[C@@H]1[C@@H](C/C=C\CCCC(=O)O)[C@@H](O)C[C@H]1O [13,14-dihydro-15-keto PGF2α, reference compound] | no specific activity was detected | – | endogenous PPAR activity (reporter gene) [8]: failed to increase PPAR activity
21 | O=c1cc(O)c2ccccc2o1 [4-hydroxycoumarin] | – | inhibited | –
22 | CCCCC/C=C\C[C@@H](O)/C=C/C=C/C=C\[C@@H](O)CCCC(=O)O [leukotriene B4] | no specific activity was detected | – | –
23 | CCCCC[C@H](O)/C=C/[C@@H]1[C@@H](C/C=C\CCCC(=O)O)[C@@H](O)C[C@@H]1O [11b-PGF2α] | no specific activity was detected | – | –
24 | CCCCCC(=O)/C=C/[C@@H]1[C@@H](C/C=C\CCCC(=O)O)[C@@H](O)C[C@H]1O [15-keto PGF2α] | reacted specifically | – | activation of PPAR-gamma (GAL4-LBD luciferase reporter) [4]: activated; endogenous PPAR activity (reporter gene) [8]: enhanced endogenous PPAR activity significantly
25 | CCCCCC(=O)CC[C@H]1[C@H](O)CC(=O)[C@@H]1C/C=C\CCCC(=O)O [13,14-dihydro-15-keto PGE2, reference compound] | no specific activity was detected | – | endogenous PPAR activity (reporter gene) [8]: failed to increase PPAR activity
26 | CCCCC[C@H](O)/C=C/[C@@H]1[C@@H](C/C=C\CCCC(=O)O)[C@H](O)C[C@H]1O [PGF2β] | no specific activity was detected | – | –
